The supplement of paper PMC11061612

Key:
Experiment in all cases: Bliss excess, mean over the matrix (fraction); higher = more synergy
[1] = tested on: MDA-MB-157 (Breast Carcinoma)
Procedure, shortened: (§1)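 Bliss excess equals the observed combination effect minus the expected value EA + EB − EA·EB, where EA and EB are the effects of each agent alone. Combination Emax is the second-highest inhibition within the matrix. Inhibition was scaled from CellTiter-Glo 2.0 luminescence, with 0 set by vehicle wells and 1 by blank wells, after 72 hours of two-drug dosing of cells plated in 1536-well plates.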

[2] = tested on: IGR-1 (Melanoma)
Procedure, shortened: as §1

[3] = tested on: C3A (Hepatocellular Carcinoma)
Procedure, shortened: as §1

[4] = tested on: G-292-Clone-A141B1 (Osteosarcoma)
Procedure, shortened: as §1

[5] = tested on: JiyoyeP-2003 (Burkitt's Lymphoma)
Procedure, shortened: as §1

[6] = tested on: SN12C (Kidney Carcinoma)
Procedure, shortened: as §1

[7] = tested on: MDA-MB-231 (Breast Carcinoma)
Procedure, shortened: as §1

[8] = tested on: EM-2 (Chronic Myelogenous Leukemia)
Procedure, shortened: as §1

[9] = tested on: CFPAC-1 (Pancreatic Carcinoma)
Procedure, shortened: as §1

[10] = tested on: NALM-6 (B-Lymphoblastic Leukemia)
Procedure, shortened: as §1

[11] = tested on: HPAC (Pancreatic Carcinoma)
Procedure, shortened: as §1

[12] = tested on: 697 (B-Lymphoblastic Leukemia)
Procedure, shortened: as §1

[13] = tested on: MFH-ino (Other Solid Carcinomas)
Procedure, shortened: as §1

[14] = tested on: KARPAS-620 (Plasma Cell Myeloma)
Procedure, shortened: as §1

[15] = tested on: KATOIII (Gastric Carcinoma)
Procedure, shortened: as §1

[16] = tested on: KM-H2 (Hodgkin's Lymphoma)
Procedure, shortened: as §1

[17] = tested on: CAL-78 (Chondrosarcoma)
Procedure, shortened: as §1

[18] = tested on: NCI-H1793 (Lung Adenocarcinoma)
Procedure, shortened: as §1

[19] = tested on: SNU-C5 (Colorectal Carcinoma)
Procedure, shortened: as §1

[20] = tested on: SW780 (Bladder Carcinoma)
Procedure, shortened: as §1

Compound | Bliss excess [1] | Bliss excess [2] | Bliss excess [3] | Bliss excess [4] | Bliss excess [5] | Bliss excess [6] | Bliss excess [7] | Bliss excess [8] | Bliss excess [9] | Bliss excess [10] | Bliss excess [11] | Bliss excess [12] | Bliss excess [13] | Bliss excess [14] | Bliss excess [15] | Bliss excess [16] | Bliss excess [17] | Bliss excess [18] | Bliss excess [19] | Bliss excess [20]
CCc1c2c(nc3ccc(O)cc13)-c1cc3c(c(=O)n1C2)COC(=O)[C@]3(O)CC [SN-38] + O=C(c1cc(Cc2n[nH]c(=O)c3ccccc23)ccc1F)N1CCN(C(=O)C2CC2)CC1 [Olaparib] (first compound max 0.3 µM, 7x7, partner max 10 µM) | 0.0102 | 0.0115 | 0.0041 | -0.0332 | 0.104 | 0.0457 | 0.107 | 0.0606 | 0.0607 | 0.0775 | -0.0031 | 0.0877 | 0.0254 | -0.0221 | -0.0478 | – | – | – | – | –
CC(=O)c1c(C)c2cnc(Nc3ccc(N4CCNCC4)cn3)nc2n(C2CCCC2)c1=O [Palbociclib] + CN(CC[C@H](CSC1=CC=CC=C1)NC2=C(C=C(C=C2)S(=O)(=O)NC(=O)C3=CC=C(C=C3)N4CCC(CC4)[C@H](C5=CC=CC=C5C6=CC=C(C=C6)Cl)O)S(=O)(=O)C(F)(F)F)CCO [AZD4320] (first compound max 10 µM, 7x7, partner max 1 µM) | – | -0.0387 | -0.0358 | – | -0.0053 | – | – | -0.0899 | 0.0056 | – | -0.0765 | -0.0718 | – | – | – | -0.0282 | -0.0873 | -0.0299 | 0.025 | -0.136
COc1nnc2ccc(N3CCC(c4ccc(OCCN5CCN(C)C(=O)[C@H]5C)cc4)CC3)nn12 [AZD5153] + CN(CC[C@H](CSC1=CC=CC=C1)NC2=C(C=C(C=C2)S(=O)(=O)NC(=O)C3=CC=C(C=C3)N4CCC(CC4)[C@H](C5=CC=CC=C5C6=CC=C(C=C6)Cl)O)S(=O)(=O)C(F)(F)F)CCO [AZD4320] (first compound max 1 µM, 7x7, partner max 1 µM) | – | 0.197 | 0.0705 | – | -0.0036 | – | – | -0.0442 | -0.0328 | – | 0.0229 | -0.0709 | – | – | – | -0.0319 | 0.132 | 0.039 | 0.0451 | -0.0091
Cc1nc(Nc2ncc(C(=O)Nc3c(C)cccc3Cl)s2)cc(N2CCN(CCO)CC2)n1 [Dasatinib] + CC(=O)Nc1cccc(-n2c(=O)n(C3CC3)c(=O)c3c(Nc4ccc(I)cc4F)n(C)c(=O)c(C)c32)c1 [Trametinib] (first compound max 2 µM, 7x7, partner max 1 µM) | -0.0026 | -0.0448 | -0.0059 | – | 0.193 | -0.0254 | -0.0145 | -0.0935 | 0.106 | 0.0217 | 0.039 | -0.0461 | -0.0838 | 0.0632 | -0.0164 | -0.0367 | -0.108 | -0.0406 | -0.013 | 0.0848
